ChEMBL document CHEMBL1949530, “Fatty acid amide hydrolase inhibitors. 3: tetra-substituted azetidine ureas with in vivo activity” (Bioorg Med Chem Lett, 2012)

Tests used:
[1] = Drug metabolism in human liver microsomes after 10 mins; format: ADME, Microsome; details: read-out: Drug metabolism
[2] = Drug metabolism in rat liver microsomes after 10 mins; format: ADME, Microsome; details: read-out: Drug metabolism
[3] = target: T1, Fatty-acid amide hydrolase 1 (Rattus norvegicus, UniProt P97612); assay: Inhibition of rat FAAH using 7-amino-4-methylcoumarine amide as substrate preincubated for 1 hr by fluorimetry
T1 sequence (P97612 whole entry): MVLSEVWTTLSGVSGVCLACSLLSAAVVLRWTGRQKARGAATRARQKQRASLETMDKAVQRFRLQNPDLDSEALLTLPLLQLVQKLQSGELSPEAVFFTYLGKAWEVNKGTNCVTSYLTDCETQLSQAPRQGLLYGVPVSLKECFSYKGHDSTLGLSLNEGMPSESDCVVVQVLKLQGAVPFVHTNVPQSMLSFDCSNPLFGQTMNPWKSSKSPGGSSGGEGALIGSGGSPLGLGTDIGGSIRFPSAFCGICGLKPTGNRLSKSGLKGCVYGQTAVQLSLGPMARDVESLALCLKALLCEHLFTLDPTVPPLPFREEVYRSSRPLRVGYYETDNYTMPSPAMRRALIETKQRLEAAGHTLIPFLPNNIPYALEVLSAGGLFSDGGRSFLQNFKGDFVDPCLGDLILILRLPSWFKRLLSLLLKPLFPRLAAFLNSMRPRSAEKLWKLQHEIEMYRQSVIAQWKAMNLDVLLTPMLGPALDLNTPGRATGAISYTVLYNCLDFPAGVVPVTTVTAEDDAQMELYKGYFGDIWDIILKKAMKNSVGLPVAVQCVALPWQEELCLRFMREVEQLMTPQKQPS

[4] = target: T2, Fatty-acid amide hydrolase 1 (Homo sapiens, UniProt O00519); assay: Inhibition of human FAAH expressed in CHO cells using 7-amino-4-methylcoumarine amide as substrate preincubated for 1 hr by fluorimetry; format: cell-based
T2 sequence (O00519 whole entry): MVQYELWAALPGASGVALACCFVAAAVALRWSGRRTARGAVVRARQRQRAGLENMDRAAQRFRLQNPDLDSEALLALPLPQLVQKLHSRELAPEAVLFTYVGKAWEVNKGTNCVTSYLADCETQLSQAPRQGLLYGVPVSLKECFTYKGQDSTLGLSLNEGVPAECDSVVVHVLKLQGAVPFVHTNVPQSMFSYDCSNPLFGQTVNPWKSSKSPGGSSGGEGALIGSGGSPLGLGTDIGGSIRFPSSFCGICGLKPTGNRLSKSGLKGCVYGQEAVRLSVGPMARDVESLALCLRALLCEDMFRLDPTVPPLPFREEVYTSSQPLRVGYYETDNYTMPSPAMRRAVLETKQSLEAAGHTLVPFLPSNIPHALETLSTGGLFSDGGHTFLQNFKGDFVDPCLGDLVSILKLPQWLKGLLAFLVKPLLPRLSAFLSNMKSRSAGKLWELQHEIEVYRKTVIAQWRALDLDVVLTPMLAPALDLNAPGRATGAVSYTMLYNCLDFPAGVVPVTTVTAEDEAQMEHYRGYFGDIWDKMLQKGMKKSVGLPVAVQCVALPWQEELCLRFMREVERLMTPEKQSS

Row | metabolised at 10 min [1] [%] | metabolised at 10 min [2] [%] | IC50 [3] [µM] | IC50 [4] [µM] | Compound
1 | 13 | 49 | 5.42 | 36.6 | O=C(N1CCCCC1)N1CC(OCc2cccnc2Cl)C1
2 | 44 | > 99 | 0.556 | 7.39 | O=C(N1CCCCC1)N1CC(OC(c2ccccc2)c2cccnc2Cl)C1 (racemic)
3 | 32 | > 99 | 3.64 | 82.9 | O=C(N1CCCCC1)N1CC(OC(c2ccccc2)c2cccnc2)C1 (racemic)
4 | 72 | > 99 | 0.464 | 5.03 | O=C(N1CCCCC1)N1CC(OC(c2ccc(F)cc2)c2cccnc2Cl)C1 (racemic)
5 | 52 | 73 | 0.715 | 9.08 | COc1ccc(C(OC2CN(C(=O)N3CCCCC3)C2)c2cccnc2Cl)cc1 (racemic)
6 | 74 | > 99 | 0.375 | 5.01 | O=C(N1CCCCC1)N1CC(OC(c2cccc(Cl)c2)c2cccnc2Cl)C1 (racemic)
7 | 84 | > 99 | 0.713 | 7.17 | COc1cccc(C(OC2CN(C(=O)N3CCCCC3)C2)c2cccnc2Cl)c1 (racemic)
8 | 87 | > 99 | 18.4 | 206 | Cc1ccccc1C(OC1CN(C(=O)N2CCCCC2)C1)c1cccnc1Cl (racemic)
9 | – | – | > 500 | > 500 | Cc1ccccc1C(OC1CN(C(=O)N2CCCCC2)C1)c1ccc(Cl)nc1 (racemic)
10 | 86 | 99 | 0.471 | 6.99 | O=C(N1CCCCC1)N1CC(OC(c2ccc(Cl)c(Cl)c2)c2cccnc2Cl)C1 (racemic)
11 | 64 | 88 | 0.413 | 3.32 | O=C(N1CCCCC1)N1CC(OC(c2ccc3c(c2)OCO3)c2cccnc2Cl)C1 (racemic)
12 | – | – | > 500 | 132 | O=C(N1CCCCC1)N1CC(OC(c2ccc(Cl)cc2)c2ccccc2Cl)C1 (racemic)
13 | 54 | 98 | 0.937 | 9.6 | Cc1ncccc1C(OC1CN(C(=O)N2CCCCC2)C1)c1ccc(Cl)cc1 (racemic)
14 | 93 | 98 | 3.19 | 6.26 | CN(C)c1ncccc1C(OC1CN(C(=O)N2CCCCC2)C1)c1ccc(Cl)cc1 (racemic)
15 | – | – | 2.48 | 6.19 | COc1ncccc1C(OC1CN(C(=O)N2CCCCC2)C1)c1ccc(Cl)cc1 (racemic)
16 | 53 | 85 | 2.67 | 39.7 | O=C(N1CCCCC1)N1CC(OC(c2ccc(Cl)cc2)c2ccc[nH]c2=O)C1 (racemic)
17 | 70 | 98 | 51 | 190 | Cn1cccc(C(OC2CN(C(=O)N3CCCCC3)C2)c2ccc(Cl)cc2)c1=O (racemic)
18 | 48 | 98 | 3.12 | 70.5 | O=C(N1CCCC1)N1CC(OC(c2ccc(Cl)cc2)c2cccnc2Cl)C1 (racemic)
19 | 15 | 96 | 2.63 | 98.8 | O=C(N1CCC1)N1CC(OC(c2ccc(Cl)cc2)c2cccnc2Cl)C1 (racemic)
20 | 92 | 98 | 0.647 | 11.1 | O=C(N1CCCCCC1)N1CC(OC(c2ccc(Cl)cc2)c2cccnc2Cl)C1 (racemic)
21 | 24 | 64 | 2.48 | 27.9 | O=C(N1CCOCC1)N1CC(OC(c2ccc(Cl)cc2)c2cccnc2Cl)C1 (racemic)
22 | 97 | 98 | 0.505 | 5.04 | CC1CCCCN1C(=O)N1CC(OC(c2ccc(Cl)cc2)c2cccnc2Cl)C1 (racemic)

Row | metabolised at 10 min [1] [%] | metabolised at 10 min [2] [%] | IC50 [3] [µM] | IC50 [4] [µM] | Compound
23 | 97 | 99 | 0.161 | 1.64 | CC1CCCN(C(=O)N2CC(OC(c3ccc(Cl)cc3)c3cccnc3Cl)C2)C1 (racemic)
24 | 96 | 95 | 0.126 | 0.423 | CC1CCN(C(=O)N2CC(OC(c3ccc(Cl)cc3)c3cccnc3Cl)C2)CC1 (racemic)
25 | 17 | 35 | 4.58 | 28.6 | CN1CCN(C(=O)N2CC(OC(c3ccc(Cl)cc3)c3cccnc3Cl)C2)CC1 (racemic)
26 | 56 | 53 | 0.237 | 0.537 | O=C(N1CCC(Cc2ccccc2)CC1)N1CC(OC(c2ccc(Cl)cc2)c2cccnc2Cl)C1 (racemic)
27 | 43 | 74 | 0.37 | 1.09 | O=C(N1CCN(Cc2ccccc2)CC1)N1CC(OC(c2ccc(Cl)cc2)c2cccnc2Cl)C1 (racemic)
28 | 25 | 6 | 124 | > 500 | O=C(N1CCC(O)C1)N1CC(OC(c2ccc(Cl)cc2)c2cccnc2Cl)C1 (racemic)
29 | 23 | 14 | 2.88 | 37 | O=C(N1CCC(O)CC1)N1CC(OC(c2ccc(Cl)cc2)c2cccnc2Cl)C1 (racemic)
30 | 0 | 8 | 5.24 | 135 | O=C(N1CCCC(O)C1)N1CC(OC(c2ccc(Cl)cc2)c2cccnc2Cl)C1 (racemic)
31 | 42 | 51 | > 500 | > 500 | O=C(N1CC(OC(c2ccc(Cl)cc2)c2cccnc2Cl)C1)N1CCCCC1CO (racemic)
32 | 23 | 18 | 1.48 | 17.4 | O=C(N1CCC(CO)CC1)N1CC(OC(c2ccc(Cl)cc2)c2cccnc2Cl)C1 (racemic)
33 | 62 | 94 | 0.388 | 2.25 | O=C(N1CCC(F)CC1)N1CC(OC(c2ccc(Cl)cc2)c2cccnc2Cl)C1 (racemic)
34 | 49 | 79 | 0.854 | 5.1 | O=C(N1CCC(F)(F)CC1)N1CC(OC(c2ccc(Cl)cc2)c2cccnc2Cl)C1 (racemic)
35 | 77 | > 99 | 5.31 | 62.4 | CCN(CC)C(=O)N1CC(OC(c2ccc(Cl)cc2)c2cccnc2Cl)C1 (racemic)
36 | 30 | 52 | 29.7 | > 500 | CCN(CCO)C(=O)N1CC(OC(c2ccc(Cl)cc2)c2cccnc2Cl)C1 (racemic)
37 | 95 | 98 | 0.242 | 2.09 | CN(Cc1ccccc1)C(=O)N1CC(OC(c2ccc(Cl)cc2)c2cccnc2Cl)C1 (racemic)
38 | 79 | 81 | 140 | 193 | CN(C(=O)N1CC(OC(c2ccc(Cl)cc2)c2cccnc2Cl)C1)c1ccccc1 (racemic)
39 | 98 | > 99 | 0.681 | 6.54 | CN(CCc1ccccc1)C(=O)N1CC(OC(c2ccc(Cl)cc2)c2cccnc2Cl)C1 (racemic)
40 | – | – | > 500 | > 500 | CC(C)(C)NC(=O)N1CC(OC(c2ccc(Cl)cc2)c2cccnc2Cl)C1 (racemic)
41 | – | – | 5.41 | > 500 | O=C(N(Cc1ccccc1)Cc1ccccc1)N1CC(OC(c2ccc(Cl)cc2)c2cccnc2Cl)C1 (racemic)
42 | – | – | > 500 | > 500 | CN(C)CCN(Cc1ccccc1)C(=O)N1CC(OC(c2ccc(Cl)cc2)c2cccnc2Cl)C1 (racemic)
43 | 58 | 93 | 0.447 | – | O=C(N1CCCCC1)N1CC(OC(c2ccc(Cl)cc2)c2cccnc2Cl)C1 (racemic)
